Experimental data: patent publication US7658706B2, “Vascular graft sterilization and decellularization” (RTI Biologics, Inc., priority 2005, dated 2010)

Columns and labels:
human saphenous vein = assay: Histology (H&E) for cellularity and matrix (Example 1); conditions: 1.0% Cholate at 48° C.
Procedure: Samples of human saphenous veins 10 mm in length were placed in each of the test solution at 37° C. or 48° C. for both 6 and 24 hours while continuously shaking. Samples were then rinsed in PBS at room temperature for 10 minutes while continuously shaking. Following the rinse step, the samples were cut in half and either prepared for histology or immunohistochemistry.
Samples were placed in 10% buffered formalin immediately following the rinse step and remained there for at least 24 hours before further preparation. Then, the samples were embedded in paraffin and stained with hematoxylin and eosin (H&E) to determine cellularity.
The results of the immunohistochemical stain were compared to histology slides stained for cellularity (FIGS. 7 to 10). […] The extracellular matrix is preserved in each segment except with 1.0% Cholate at 48° C.

[1] = Biocompatibility of the detergent injected in a rat; format: in vivo, Sprague Dawley rats; conditions: 0.25%, 0.1%, 0.01%, 0.001% in four sites, 6 weeks after surgery
Procedure: Four implants from each group go into one rat for a total of 7 rats and 28 implant sites. An eighth rat is injected in four sites with decreasing concentrations of sodium deoxycholate (0.25%, 0.1%, 0.01%, 0.001%) to measure the biocompatibility of the detergent.

[2] = test system: class I MHC antigens in human saphenous vein; assay: Immunohistochemical stain for class I MHC antigens after decellularization (Example 1); conditions: high concentrations and high temperatures
Procedure: The effectiveness of cell and cellular debris removal was evaluated using two detergent and two enzyme solutions at various concentrations (Table 2). […] One treatment group combined Triton-X 100 with sodium deoxycholate. Trypsin alone at 0.05% (w/v) or 1.0% (w/v) and in combination with 0.02% (w/v) EDTA were the enzyme solutions used in the decellularization process.
Samples were then rinsed in PBS at room temperature for 10 minutes while continuously shaking. Following the rinse step, the samples were cut in half and either prepared for histology or immunohistochemistry.
Immunohistochemistry was used to determine the level of antigens remaining in the tissue after treatment. […] Samples were prepared in frozen blocks and sectioned with a cryostat. The sections were thawed and then rinsed for blocking and antibody staining. Sections were incubated for 30 minutes in primary antibody (mouse anti-HLA-ABC class I MHC) solution and then for anther 30 minutes in diluted biotinylated secondary antibody (Vector ABC Elite kit) solution. An enzyme substrate, NovaRed (Vector), was used to stain the antibodies red. The counter stain was hematoxylin providing a blue contrast.
A Zeiss Axiophot 2 microscope with a motorized Ludl scanning stage was used with tile field mapping at 5× to capture the entire image in one frame. Particle analysis was performed in Image J to determine the ratio of antigen staining (red) to the total tissue sample.
A blue and green filter was applied to only allow red to pass. Obvious areas of antigen staining were removed due to this variation in red hue. […] All samples were compared to their negatives for a percentage of red staining.
This procedure was applied to all images. […] The treatment groups are labeled according to the detergent or enzyme used followed by the processing conditions. For the Trypsin and Trypsin+EDTA groups, the concentrations ranged from 0.05% (L) to 1.0% (H), the processing temperatures were 37° C. (L), 48° C. (M) and 55° C. (H), and the processing times were 6 hrs (L), 17 hrs (M) and 24 hrs (H).

collagen = assay: Collagen denaturation, quantitative enzyme digestion assay (matrix integrity); conditions: Triton 1.0%, Cholate 0.25%, 48° C., 24 hours, constant agitation (FIG. 11)
Procedure: One of the major structural components of the extracellular matrix that gives veins their strength is collagen. Damage to collagen can result in mechanical failures such as increased compliance or aneurism formation. It can also result in a cellular response due the exposure of the triple helix when stability is compromised. The amount of collagen denaturation was assessed to evaluate processing conditions with a quantitative enzyme digestion assay. […] Digested and undigested fractions are separated and hydrolyzed with concentrated hydrochloric acid (HCl) to release free amino acids from each fraction. Following neutralization of the acid in 1 N NaOH, levels of hydroxyproline (an amino acid present in high concentrations in collagen) are assessed in each fraction by a calorimetric method at a wavelength of 550 nm (Chloramine T binding, and reduction of the substrate DAB to a colored end product). The level of denatured collagen in a given sample is then expressed as a percent of the trypsin soluble fraction to the sum of both trypsin soluble and trypsin insoluble fractions.
Achieving the appropriate log reduction should not come at the expense of the integrity of the extracellular matrix. […] The effect of hydrogen peroxide at 6% at 40° C. and 50° C. on collagen was compared to PAA at 0.1% at the same specified temperatures.
Digested and undigested fractions are separated and hydrolyzed with concentrated hydrochloric acid (HCl) to release free amino acids from each fraction. Following neutralization of the acid in 1 N NaOH, levels of hydroxyproline (an amino acid present in high concentrations only in collagen) are assessed in each fraction by a calorimetric method (Chloramine T binding, and reduction of the substrate DAB to a colored end product). The level of denatured collagen in a given sample is then expressed as a percent of the trypsin soluble fraction to the sum of both trypsin soluble and trypsin insoluble fractions.

sodium deoxycholate
extracellular matrix in histology (human saphenous vein): large holes within the venous wall and separation between the fibers | response to injected detergent [1]: No response was noted | removal of class I MHC staining [2]: approximately 100% | staining [2]: approximately 0% | collagen degradation compared to untreated controls (collagen): A significant degradative effect was not seen
